Results as given in PubChem BioAssay AID844 (SRMLSC, 2007).
pEC50: −log10 of the molar value. Activity calls are given as the source filed them. The rule behind the calls is not given here.

System: MRP1 cells, doxorubicin viability shift, 10 uM compound
Test: viability protection against doxorubicin, MRP-1 line – cell-based, doxorubicin EC50 shift, dose response (AID 844)
Settings: for pEC50: measured here: doxorubicin EC50 with compound

SMILES	fold increase in Dox EC50	pEC50
Cc1ccc(/C=C2\SC(=S)N(CCC(=O)NNC(=O)c3cccnc3)C2=O)cc1	0.91 (inactive)	5.31
O=C(N/N=C/c1ccccc1[N+](=O)[O-])c1ccc(COc2ccccc2-c2ccccc2)cc1	1 (inactive)	5.27
O=c1oc(-c2cc3ccccc3o2)nc2sc3c(c12)CCCC3	1.17 (inactive)	5.20
COc1ccc(-c2cc3nc(-c4ccccc4)cc(N4CCC5(CC4)OCCO5)n3n2)cc1	0.21 (inactive)	5.94
O=C1c2cccc(OCc3ccc(F)cc3)c2CCN1Cc1ccc(F)cc1	1.08 (inactive)	5.23
O=C(COc1nsnc1N1CCOCC1)N/N=C/c1ccccc1O	0.26 (inactive)	5.86
CCOC(=O)c1cc(-c2ccccc2)sc1NC(=O)C(C)Sc1nnc(N)s1 (stereo unspecified)	0.73 (inactive)	5.41
CCOC(=O)c1ccc(N2C(=O)c3n[nH]c(C)c3C2c2ccc(OC)cc2OC)cc1 (stereo unspecified)	0.28 (inactive)	5.82
COc1ccc(-c2cc3nc(C)cc(N4CC(C)CC(C)C4)n3n2)cc1 (stereo unspecified)	0.64 (inactive)	5.46
O=C(NC(=S)Nc1ccccc1N1CCOCC1)c1ccc(-c2cc(Cl)ccc2Cl)o1	1 (inactive)	5.27
CCOC(=O)c1ccc(Oc2nc(NC(C)(C)C)nc(N(C)C)n2)cc1	0.82 (inactive)	5.35
C=CCOc1ccc(CNc2ccc(NC(=O)CC(C)C)cc2)cc1OC	0.82 (inactive)	5.35
CCN(C(=O)c1cc2cc3ccc(C)cc3nc2o1)c1ccc(OC)cc1	0.64 (inactive)	5.46
N#Cc1nc(COc2cccc(Cl)c2)oc1N1CCCC1	0.93 (inactive)	5.30
O=C(Cc1ccccc1)Nc1ccccc1Oc1ccccc1	0.69 (inactive)	5.43
COc1ccc(NC(=O)C(=O)N/N=C/c2cc(C)n(-c3cccc(Cl)c3Cl)c2C)c(OC)c1	1.43 (inactive)	5.11
O=C(NC(=S)Nc1nc(-c2ccccc2)cs1)c1cncc(Br)c1	0.99 (inactive)	5.27
COC(=O)c1cnn(-c2cc(Oc3ccccc3)ncn2)c1N	0.76 (inactive)	5.39
CC(NC(=O)c1ccc(Br)cc1)c1ccc2c(c1)CCCC2 (stereo unspecified)	1.36 (inactive)	5.13

SMILES	fold increase in Dox EC50	pEC50
CCOC(=O)c1sc2nc3n(c(=O)c2c1C)CCCCC3	0.52 (inactive)	5.55
CCOC(=O)c1sc(-c2ccc(F)cc2)cc1NC(=O)Nc1ccccc1OC	0.83 (inactive)	5.35
COc1cccc(/C=N/NC(=O)C(=O)N2CCCC2)c1O	0.67 (inactive)	5.44
C=CCOC(=O)C(C#N)c1nc2ccccc2nc1N1CCN(c2ccccc2OCC)CC1 (stereo unspecified)	0.56 (inactive)	5.52
Cc1nc(=O)c(-c2ccccc2)c(C)n1-c1ccc(O)cc1	1.32 (inactive)	5.15
CCOC(=O)/C=C1\SCC(=O)N1CCOc1cccc(Br)c1	1.2 (inactive)	5.19
O=C(CC(=O)N/N=C/c1ccccc1O)NCc1cccnc1	0.39 (inactive)	5.68
COc1ccc(CNc2nc3c(c(=O)n(Cc4ccc(Br)cc4)c(=O)n3C)n2C)cc1	0.95 (inactive)	5.29
S=C(NCc1ccccn1)Nc1ccccc1Cl	1.14 (inactive)	5.21
COc1ccc(/C=N/Nc2cc(OC)ncn2)cc1	0.57 (inactive)	5.51
CCOc1ccc(C2CC(c3ccc(CC)cc3)Nc3nc(N)nn32)cc1 (stereo unspecified)	1.24 (inactive)	5.17
CCC1SC2=NC(C)=C(C(=O)OC)C(c3cccs3)N2C1=O (stereo unspecified)	1.1 (inactive)	5.23
C[C@H](C(=O)C=[N+]=[N-])N1C(=O)c2ccccc2C1=O	0.56 (inactive)	5.52
O=C(CN1C(=O)S/C(=C\c2ccc(Cl)cc2)C1=O)NNC(=O)c1ccccc1O	1.05 (inactive)	5.25
O=[N+]([O-])c1ccc(N/N=C/c2ccccc2)c(F)c1	0.64 (inactive)	5.46
O=C1NC(=Nc2ccc(Cl)cc2)SC1Cc1cc(Cl)ccc1Cl (stereo unspecified)	1.09 (inactive)	5.23
Cc1nnc(NC(=O)c2ccccc2Br)s1	1.05 (inactive)	5.24
Cc1cccc2c3nc4ccccc4nc3n(CCCN3C(=O)c4ccccc4C3=O)c12	0.13 (inactive)	6.14
Cc1cc(N2CCN(c3cccc(C)c3C)CC2)nc(-c2ccccc2)n1	0.99 (inactive)	5.27
